Where two headings read alike, the source gives them in different places.
Experiments:
HIV-1 [1] = type: cell-based
HIV-1 [2] = type: cell-based; remark: listed apart in the source
[3] = tested on: genes "GAG", "LTR" and "ENV" of the HIV-1 provirus; assay: Integration of viral genome into chromosomic DNA of Supt-1 cells (PCR); type: cell-based; conditions: HIV-1 treated with 1/100 dilution
Procedure: By means of a genetic amplification through a thermostable polymerase, the presence of genes "GAG", "LTR" and "ENV" of the HIV-1 provirus is evidenced. This method is called P.C.R. Polymerase chain Reaction) (Chin-Yih Ou et al., Sciences 239, 295-297, 1988).
Said method is applied for detecting HIV-1 provirus in the genome of Supt-1 cells inoculated with HIV-1 virus incubated with […] (dilution 1/100), as described in Example 8
Amplified oligonucleotides, UV visible by means of ethidium bromide appear only in the tubes corresponding to an inoculation with HIV-1 viruses which were not treated with the active substance.
One proceeds as in Example 11(c). The search of genes "GAG", "LTR" and "ENV" has been made in cellular cultures inoculated with a virus incubated for 15 minutes with the active substance. This search is appeared as being negative, and thus it can be concluded that 1.1'-azobisformamide at the dosage of 35 μgr/ml protects the cells against infection by HIV-1.
Examples 10c and 11c disclose a more accurate method than the ELISA test for examining whether the inoculated cells contain HIV-1 at the end of the assay, i.e., the PCR-Method.

[4] = tested on: lymphocyte cellular lines; assay: Toxicity for human lymphocyte cellular lines; type: cell-based; conditions: even after 24 hours
[5] = tested on: Molt-3 cells infected by HTLVIII-B
[6] = tested on: human blood cell glutathione; conditions: N. S. KOSOWER et al. (1969); cited from earlier work
in vitro [7] = conditions: human, supt-1 cells
in vitro [8] = conditions: human, molt-3 cells, % of dead cells
[9] = tested on: HIV strain of the patient; assay: Resistance of the patient's HIV strain (course of treatment; gene sequencing of viral RNA); conditions: for genetic resistance of the patient's strain: mutations in codons 67, 70, 184, 215 and 219; for resistance, concomitant medication: patient of Example 27, DDI, then DDI and DDC
wild HIV-1 strains = assay: Phenotypic resistance of wild HIV-1 strains; type: cell-based; conditions: strains marked * (Wild A, B, C, F, G)

## CN(C)C(=O)N=NC(=O)N(C)C [1.1'-azobisdimethylformamide]
HIV-1 [1]
  effectiveness up to the 25th day: effectiveness of this active substance is maintained
  infection of sound Supt-1 cells by treated HIV: is not able to infect the sound Supt-1 cells
  protection of Supt-1 cells: has this effect
HIV-1 [2]
  cytopathogenic effect: no cytopathogenic effect was observed
[3]
  HIV-1 provirus within Supt-1 cells: totally absent
[4]
  toxicity for human lymphocyte cellular lines: no toxicity
Supt-1 cells
  cellular viability of Supt-1 cells: does not decrease the cellular viability
  toxicity against sound Supt-1 cells: no toxicity against sound Supt-1 cells
  toxicity for human Supt-1 cells: no toxicity
[5]; after 30 minutes, even at dilution 1/3000
  mortality of the infected cells: mortality of the infected cells is doubled
[5]; dilution 1/500, 1 min
  Number of dead cells: 9
  Number of living cells: 62
[5]; dilution 1/500, 10 min
  Number of dead cells: 11
  Number of living cells: 67
[5]; dilution 1/500, 30 min
  Number of dead cells: 12
  Number of living cells: 58
[5]; dilution 1/1500, 30 min
  Number of dead cells: 15
  Number of living cells: 70
[5]; dilution 1/3000, 30 min
  Number of dead cells: 12
  Number of living cells: 58
[5]; human, molt-3 cells, 0.5 h
  % of dead cells: 17.6%
[6]
  intracellular oxidising action on human blood cell glutathione: intracellular oxidising action on human blood cell glutathione
In vitro [7]
  cytotoxicity at 0 h: 26%
  cytotoxicity at 1 h: 24%
  cytotoxicity at 5 h: 28%
In vitro [8]
  cytotoxicity at 1 min: 12.7%
  cytotoxicity at 10 min: 14%
  cytotoxicity at 0.5 h: 17.1%

## Nc1ccn([C@@H]2CS[C@H](CO)O2)c(=O)n1 [3TC]
[9]
  genetic resistance of the patient's strain: genetically resistant

## Cc1cn([C@H]2C[C@H](N=[N+]=[N-])[C@@H](CO)O2)c(=O)[nH]c1=O [AZT, 3'-azido-3'-desoxythymidine]
Wild HIV-1 strains
  phenotypic resistance to AZT: Phenotypically resistant
[9]
  genetic resistance of the patient's strain: genetically resistant

## Nc1ccn([C@H]2CC[C@@H](CO)O2)c(=O)n1 [DDC]
[9]
  genetic resistance of the patient's strain: genetically resistant
  resistance, concomitant medication: stopped because of resistance

## O=c1[nH]cnc2c1ncn2[C@H]1CC[C@@H](CO)O1 [DDI]
[9]
  genetic resistance of the patient's strain: genetically resistant
  resistance, concomitant medication: stopped because of resistance
